Reference: PubChem BioAssay (NCI)
Several values for one entry are separate records, joined by “and”; a condition that tells them apart may be missing. Identical values can stand only once.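 1) Cells in 96-well plates. 2) Compound, 48 h, 5 concentrations. 3) Linear interpolation between surrounding doses. 4) Unreached endpoint = highest concentration. GI50: concentration for 50% inhibition of growth. At the TGI there is no net growth.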

Columns and labels:
[1] = system: SN12K1 renal; experiment: NCI tumour cell line growth inhibition, 48 h
[2] = system: P388/ADR leukemia; experiment: NCI tumour cell line growth inhibition, 48 h

Structure (SMILES) | TGI [1] | TGI [2] | GI50 [1] | GI50 [2]
CC(C)[C@](O)(C(=O)OCC1=CC[N+]2([O-])CC[C@@H](O)[C@@H]12)[C@H](C)O (stereo not given in full) | > 10000 µM | > 10000 µM | – | –
COC1=C(C)C(=O)C2=C(C1=O)C(CO)N1C(C#N)C3CC4C(C1C2N1CCOC41)N3C (stereo not given) | 17.4 µM | > 100 µM | – | –
COc1ccc2[nH]c3c(C)c4cc[n+](C)cc4c(C)c3c2c1 | 2.96 µM and 2.75 µM and 1.85 µM | > 56.2 µM and > 75 µM and 125 µM | 0.146 µM | 20.8 µM
S=c1nc[nH]c2nc[nH]c12 | 527 µM | 548 µM | – | –
